The values that follow come from EP2272817A1, “PAI-1 INHIBITOR” (Institute of Medicinal Molecular Design, Inc., priority 2008, dated 2009).

Assay [1] deals with T1, recombinant rat PAI-1 (Rattus norvegicus, UniProt P20961).
T1 sequence (P20961 24-402): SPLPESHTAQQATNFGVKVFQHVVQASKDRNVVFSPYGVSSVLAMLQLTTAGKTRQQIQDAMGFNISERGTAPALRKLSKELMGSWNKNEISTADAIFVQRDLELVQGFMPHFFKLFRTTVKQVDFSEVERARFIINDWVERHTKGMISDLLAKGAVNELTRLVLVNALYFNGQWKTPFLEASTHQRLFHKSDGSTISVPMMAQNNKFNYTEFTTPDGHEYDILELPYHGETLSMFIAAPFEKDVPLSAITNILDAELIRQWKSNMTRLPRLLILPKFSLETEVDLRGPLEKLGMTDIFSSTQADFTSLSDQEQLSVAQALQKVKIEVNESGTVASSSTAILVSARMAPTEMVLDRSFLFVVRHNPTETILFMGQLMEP
The experiment in a line: biochemical. The conditions noted are these: read-out: Inhibition Rate of PAI-1 Activity (%).

For assay [2], the target named is T2, recombinant human PAI-1 (Homo sapiens, UniProt P05121). The experiment in a line: Test Example 2: Human PAI-1 Inhibitory Activity (pH 7.4 HEPES buffer, 10 minutes incubation with two-chain tPA). Further details: purchased Molecular Innovations, Inc. The conditions noted are these: read-out: Inhibition Rate of PAI-1 Activity (%). It counts as biochemical. The procedure:
0.1 M HEPES, 0.1 M NaCl. 1 mM EDTA. 0.1 % Polyethylene glycol 8,000 (Hampton Research Corporation),
2 mM Dimethyldecylphoshine oxide [Apo-10] (Fluka Corporation)

In assay [3] the target is T2, recombinant human PAI-1. Briefly: biochemical.
Description: To this solution, 6 µl of 80 nM recombinant human PAI-1 (Molecular Innovations, Inc.) solution prepared with Tris buffer was added, and the plate was incubated for 5 minutes at room temperature. Furthermore, 30 µl of 800 IU/ml two-chain tPA (Activity Standard; American diagnostica, inc.) prepared with Tris buffer was added, and the mixed solution was incubated for 15 minutes at room temperature. Then, 30 µl of 400 µM fluorogenic substrate (Pyr-Gly-Arg-MCA; Peptide Institute, Inc.) for tPA prepared with Tris buffer was added and reacted for 30 minutes at room temperature.
50 mM Tris, 150 mM NaCl, 10 µg/ml BSA, 0.01 % Tween80 (SIGMA-ALDRICH Corporation)
The mark [4] stands for this setting: read-out: Inhibition Rate of PAI-1 Activity (%), Compound Concentration 5µM.
The mark [5] stands for this setting: read-out: Inhibition Rate of PAI-1 Activity (%), Compound Concentration 10µM.
Where [6] appears, read: read-out: Inhibition Rate of PAI-1 Activity (%), Compound Concentration 25µM.
Setting [7] is: read-out: Inhibition Rate of PAI-1 Activity (%).

Where two headings read alike, the source gives them in different places.

T2 sequence (P05121 24-402): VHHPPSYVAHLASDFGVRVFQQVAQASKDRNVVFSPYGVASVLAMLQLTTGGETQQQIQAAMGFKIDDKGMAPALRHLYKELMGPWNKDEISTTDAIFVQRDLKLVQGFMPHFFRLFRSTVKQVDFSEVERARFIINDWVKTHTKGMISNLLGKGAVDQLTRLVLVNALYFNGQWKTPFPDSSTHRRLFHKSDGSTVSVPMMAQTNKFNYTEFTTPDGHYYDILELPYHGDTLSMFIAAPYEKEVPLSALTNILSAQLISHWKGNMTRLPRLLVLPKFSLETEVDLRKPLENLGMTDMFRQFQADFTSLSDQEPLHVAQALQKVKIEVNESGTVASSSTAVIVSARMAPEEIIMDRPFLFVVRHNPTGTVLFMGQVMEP

`CC(C)(C)c1ccc(COc2ccc(-c3ccc(OC(F)(F)F)cc3)cc2CC(=O)O)cc1` [Compound 9]: in assay [1], the inhibition at 0.3 µM amounted to 0%, the inhibition at 1 µM came out at 15%, the inhibition at 3 µM was 71% and the inhibition at 10 µM was 96%. Also, in assay [2], the inhibition at 0.1 µM is 0%, the inhibition at 0.3 µM amounted to 6%, the inhibition at 1 µM came to 25% and the inhibition at 3 µM amounted to 98%. Also, the inhibition at 5 µM in assay [3] (read-out: Inhibition Rate of PAI Activity (%), Compound Concentration 5µM) was 90%. For the same compound, the inhibition at 10 µM in assay [3] (read-out: Inhibition Rate of PAI Activity (%), Compound Concentration 10µM) was 99%.

With `CC(C)c1ccc(Oc2ccc(CCC(=O)O)c(Oc3ccc(C(C)C)cc3)c2)cc1` [Compound 73], in assay [1], the inhibition at 0.3 µM was found to be 0%, the inhibition at 1 µM was 13%, the inhibition at 3 µM turned out to be 75% and the inhibition at 10 µM was found to be 98%. For the same compound, in assay [2], the inhibition at 0.1 µM worked out at 0%, the inhibition at 0.3 µM is 6%, the inhibition at 1 µM turned out to be 27% and the inhibition at 3 µM was 98%. For the same compound, the inhibition at 5 µM in assay [3] (setting [4]) worked out at 30%. For the same compound, the inhibition at 10 µM in assay [3] (setting [5]) came to 66%. In addition, in assay [3] (setting [6]), the inhibition at 25 µM was over 99%.

As for `CC(C)(C)c1ccc(COc2cc(-c3ccc(OC(F)(F)F)cc3)ccc2CCC(=O)O)cc1` [Compound 76], in assay [1], the inhibition at 0.3 µM came to 0%, the inhibition at 1 µM was found to be 6%, the inhibition at 3 µM amounted to 56% and the inhibition at 10 µM came out at 86%. Further, in assay [2], the inhibition at 0.1 µM was 10%, the inhibition at 0.3 µM turned out to be 12%, the inhibition at 1 µM was found to be 37% and the inhibition at 3 µM came out at 99%. Further, in assay [3] (setting [7]), the inhibition at 5 µM is 24%, the inhibition at 10 µM was 54% and the inhibition at 25 µM was 98%.

Turning to `CC(C)(C)c1ccc(COc2cccc(Oc3ccc(OC(F)(F)F)cc3)c2CCC(=O)O)cc1` [Compound 86], in assay [1], the inhibition at 0.3 µM is 0%, the inhibition at 1 µM stood at 12%, the inhibition at 3 µM turned out to be 34% and the inhibition at 10 µM worked out at 69%. In assay [2], the inhibition at 0.1 µM came out at 0%, the inhibition at 0.3 µM stood at 0%, the inhibition at 1 µM turned out to be 22% and the inhibition at 3 µM was 87%. For the same compound, the inhibition at 5 µM in assay [3] (setting [4]) worked out at 47%. The inhibition at 10 µM in assay [3] (setting [5]) turned out to be 80%. In assay [3] (setting [6]), the inhibition at 25 µM was 98%.

With `CC(C)(C)c1ccc(COc2c(CCC(=O)O)cccc2-c2ccc(OC(F)(F)F)cc2)cc1` [Compound 88], in assay [1], the inhibition at 0.3 µM turned out to be 0%, the inhibition at 1 µM was 0%, the inhibition at 3 µM came to 51% and the inhibition at 10 µM was 83%. Also, in assay [2], the inhibition at 0.1 µM turned out to be 0%, the inhibition at 0.3 µM was 5%, the inhibition at 1 µM turned out to be 25% and the inhibition at 3 µM worked out at 97%. Also, in assay [3] (setting [7]), the inhibition at 5 µM is 42%, the inhibition at 10 µM is 83% and the inhibition at 25 µM was found to be 97%.

For the compound `CC(C)(C)c1ccc(Oc2cccc(-c3ccc(OC(F)(F)F)cc3)c2CCC(=O)O)cc1` [Compound 94], in assay [1], the inhibition at 0.3 µM worked out at 0%, the inhibition at 1 µM is 15%, the inhibition at 3 µM is 45% and the inhibition at 10 µM was 91%. Further, in assay [2], the inhibition at 0.1 µM worked out at 0%, the inhibition at 0.3 µM was 3%, the inhibition at 1 µM was 24% and the inhibition at 3 µM amounted to 96%. Besides, in assay [3] (setting [4]), the inhibition at 5 µM amounted to 56%. Also, the inhibition at 10 µM in assay [3] (setting [5]) was 90%. Further, in assay [3] (setting [6]), the inhibition at 25 µM came out at 97%.

Turning to `CC(C)(C)c1ccc(COc2ccc(Oc3ccc(OC(F)(F)F)cc3)cc2CCC(=O)O)cc1` [Compound 96], in assay [1], the inhibition at 0.3 µM worked out at 3%, the inhibition at 1 µM came out at 14%, the inhibition at 3 µM was determined as 49% and the inhibition at 10 µM came to 96%. For the same compound, in assay [2], the inhibition at 0.1 µM came out at 6%, the inhibition at 0.3 µM came to 7%, the inhibition at 1 µM turned out to be 26% and the inhibition at 3 µM is 96%. Further, the inhibition at 5 µM in assay [3] (setting [4]) was 36%. Also, in assay [3] (setting [5]), the inhibition at 10 µM stood at 75%. In assay [3] (setting [6]), the inhibition at 25 µM was determined as 99%.

Turning to `O=C(O)CCc1c(Oc2ccc(OC(F)(F)F)cc2)cccc1Oc1ccc(OC(F)(F)F)cc1` [Compound 98], in assay [1], the inhibition at 0.3 µM was 0%, the inhibition at 1 µM turned out to be 10%, the inhibition at 3 µM was found to be 39% and the inhibition at 10 µM was 95%. Moreover, in assay [2], the inhibition at 0.1 µM is 0%, the inhibition at 0.3 µM was 2%, the inhibition at 1 µM was 25% and the inhibition at 3 µM was 84%. For the same compound, the inhibition at 5 µM in assay [3] (setting [4]) was found to be 57%. In assay [3] (setting [5]), the inhibition at 10 µM was 84%. Further, in assay [3] (setting [6]), the inhibition at 25 µM was 98%.

On to `CC(C)(C)c1ccc(Oc2cccc(-c3ccc(OC(F)(F)F)cc3)c2OCC(=O)O)cc1` [Compound 113], for which, in assay [1], the inhibition at 0.3 µM was 0%, the inhibition at 1 µM came out at 9%, the inhibition at 3 µM was 33% and the inhibition at 10 µM was determined as 99%. Moreover, in assay [2], the inhibition at 0.1 µM was 0%, the inhibition at 0.3 µM is 6%, the inhibition at 1 µM was 26% and the inhibition at 3 µM was 73%. Besides, the inhibition at 5 µM in assay [3] (setting [4]) stood at 58%. For the same compound, the inhibition at 10 µM in assay [3] (setting [5]) worked out at 85%. In addition, the inhibition at 25 µM in assay [3] (setting [6]) is 97%.

With `CC(C)(Oc1cc(-c2ccc(OC(F)(F)F)cc2)ccc1OCCCCc1ccccc1)C(=O)O` [Compound 116], in assay [1], the inhibition at 0.3 µM turned out to be 2%, the inhibition at 1 µM stood at 12%, the inhibition at 3 µM stood at 43% and the inhibition at 10 µM came to 98%. Besides, in assay [2], the inhibition at 0.1 µM was found to be 0%, the inhibition at 0.3 µM came out at 0%, the inhibition at 1 µM is 15% and the inhibition at 3 µM is 89%. In addition, in assay [3] (setting [7]), the inhibition at 5 µM was 56%, the inhibition at 10 µM came out at 81% and the inhibition at 25 µM came out at 91%.

In the case of `CC(C)(C)c1ccc(COc2c(OCC(=O)O)cccc2-c2ccc(OC(F)(F)F)cc2)cc1` [Compound 117], in assay [1], the inhibition at 0.3 µM amounted to 0%, the inhibition at 1 µM worked out at 7%, the inhibition at 3 µM is 63% and the inhibition at 10 µM turned out to be 94%. Moreover, in assay [2], the inhibition at 0.1 µM amounted to 2%, the inhibition at 0.3 µM worked out at 7%, the inhibition at 1 µM was 46% and the inhibition at 3 µM was over 99%. The inhibition at 5 µM in assay [3] (setting [4]) is 63%. The inhibition at 10 µM in assay [3] (setting [5]) is 91%. Also, in assay [3] (setting [6]), the inhibition at 25 µM was determined as 96%.

In the case of `CC(C)(C)c1ccc(CN(C(=O)C(=O)O)c2ccc(-c3ccc(OC(F)(F)F)cc3)cc2Cl)cc1` [Compound 147], in assay [1], the inhibition at 0.3 µM worked out at 0%, the inhibition at 1 µM came out at 14%, the inhibition at 3 µM came to 70% and the inhibition at 10 µM was 87%. Further, in assay [2], the inhibition at 0.1 µM came to 0%, the inhibition at 0.3 µM was 7%, the inhibition at 1 µM was determined as 35% and the inhibition at 3 µM is 99%. In assay [3] (setting [4]), the inhibition at 5 µM worked out at 38%. For the same compound, the inhibition at 10 µM in assay [3] (setting [5]) was 80%. Further, in assay [3] (setting [6]), the inhibition at 25 µM amounted to 92%.

Turning to `CC(C)(C)c1ccc(CN(C(=O)C(=O)O)c2cc(C(F)(F)F)ccc2-c2ccc(OC(F)(F)F)cc2)cc1` [Compound 168], in assay [1], the inhibition at 0.3 µM came out at 0%, the inhibition at 1 µM is 12%, the inhibition at 3 µM was 81% and the inhibition at 10 µM came to 97%. In assay [2], the inhibition at 0.1 µM worked out at 0%, the inhibition at 0.3 µM is 0%, the inhibition at 1 µM was found to be 33% and the inhibition at 3 µM worked out at 99%. For the same compound, in assay [3] (setting [4]), the inhibition at 5 µM was 63%. Moreover, the inhibition at 10 µM in assay [3] (setting [5]) was 94%.

`CC(C)(C)c1ccc(CN(C(=O)C(=O)O)c2cccc(Oc3ccc(OC(F)(F)F)cc3)c2)cc1` [Compound 172]: in assay [1], the inhibition at 0.3 µM was determined as 0%, the inhibition at 1 µM is 6%, the inhibition at 3 µM turned out to be 49% and the inhibition at 10 µM came out at 97%. In assay [2], the inhibition at 0.1 µM came out at 4%, the inhibition at 0.3 µM turned out to be 8%, the inhibition at 1 µM was found to be 18% and the inhibition at 3 µM came out at 76%. In addition, the inhibition at 5 µM in assay [3] (setting [4]) was determined as 58%. In addition, the inhibition at 10 µM in assay [3] (setting [5]) came to 89%. Further, the inhibition at 25 µM in assay [3] (setting [6]) turned out to be 94%.

For the compound `CC(C)(Oc1c(Oc2ccc(C(C)(C)C)cc2)cccc1-c1ccc(OC(F)(F)F)cc1)C(=O)O` [Compound 251], in assay [2], the inhibition at 0.1 µM was 0%, the inhibition at 0.3 µM stood at 11%, the inhibition at 1 µM was 34% and the inhibition at 3 µM is 83%. Also, the inhibition at 5 µM in assay [3] (setting [4]) was 62%. The inhibition at 10 µM in assay [3] (setting [5]) turned out to be 63%.
